# Measured values from US10781158B2, “Methods of protecting an organ using tetrahydrocurcumin and phosphatidylcholine” (Bhupinder Singh, priority 2014, dated 2020).
# “And” between values parts separate entries of the source, which are not always exact repeats. Identical values can stand only once.
# Columns and labels:
# [1] = high dosages; cited from earlier work
# [2] = system: 5/6 nephrectomy rats; assay: Proteinuria, 24-hour urine collection (total protein, urine protein/creatinine) in CKD rats; format: in vivo, Sprague-Dawley rats
# Description: (§1) For induction of CKD via nephron mass reduction, Sprague-Dawley rats underwent partial left nephrectomy followed by total right nephrectomy one week later. CKD rats were then randomized to 1% THC diet with polyenylphosphatidylcholine (PPC, 3 g/1000 kcal) vs. regular chow. […] Tail blood pressure measurement and 24-hour urine collection were done within a week of study termination. After 9 weeks on special diet, blood and kidneys were collected for biochemical and histologic analyses.
# (§2) After 24 hours the rats were analyzed for proteinuria, Galectin-3, and C-reactive protein. Galectin-3 is a marker for cardiac fibrosis, and C-reactive protein is correlated with inflammation. Furthermore, a blood urea nitrogen test (BUN) was carried out with a creatinine and creatinine clearance blood test to evaluate the kidney functions and to look for nephrotoxicity.
# [3] = previously shown; cited from earlier work
# [4] = system: 5/6 nephrectomy rats; assay: Heart weight normalized to body weight (cardiac hypertrophy) in CKD rats; format: in vivo, Sprague-Dawley rats
# Description: (§3) The experimental groups included healthy controls, CTL n=5, non-treated CKD, n=6 and CKD/THC n=6. At time of randomization to regular chow vs. THC diet, average blood urea nitrogen (BUN) was similar between the CKD groups (63.5+10.5 vs. 66+16.5 mg/dL).
# (§4) After inducing chronic kidney disease, the rats were then treated with a pharmaceutical formulation comprising tetrahydrocurcumin, or with a pharmaceutical formulation that had both tetrahydrocurcumin and curcumin. The control group consisted of five rats, ([…]), the rats with CKD (rat number 4, 15, 20, 23, 25, 31), rats with chronic kidney disease treated with tetrahydrocurcumin (rat number 8, 11, 12, 14, 19, 21, 18 and 27) and rats treated with a combination of tetrahydrocurcumin and curcumin (rat number 1, 2, 16, 24, 28, 7, 17, 29 and 30). The measurements for the average BUN, blood pressure, body weight, delta BUN, Hgb, and Heart weight/body weight for the four groups are shown in FIGS. 2A-2G.
# [5] = system: 5/6 nephrectomy rats; assay: Galectin-3 (marker for cardiac fibrosis) in CKD rats; format: in vivo, Sprague-Dawley rats
# Description: as §2
# [6] = system: 5/6 nephrectomy rats; assay: Kidney fibrosis, image quantitative analysis of Trichrome stained kidney slides in CKD rats; format: in vivo, Sprague-Dawley rats; conditions: for Kidney slides Trichrome stain, Relative % area fibrosis: Table 10, relative to CTL Ave 1
# Description: as §1, §3
# [7] = at acidic and at physiological pH; cited from earlier work
# [8] = system: 5/6 nephrectomy rats; assay: Blood urea nitrogen (BUN), creatinine and creatinine clearance blood tests (kidney function) in CKD rats; format: in vivo, Sprague-Dawley rats; set-up: Change in BUN: unit not given here
# Description: as §1, §2
# The blood urea nitrogen test (BUN) is primarily used with the creatinine test to evaluate kidney function and to help diagnose kidney disease. […] Therefore the pharmaceutical formulations comprising tetrahydrocurcumin with or without curcumin can be used to treat hypertension.
# [9] = system: 5/6 nephrectomy rats; assay: Tail blood pressure measurement in 5/6 nephrectomy CKD rats; format: in vivo, Sprague-Dawley rats; set-up: Diastolic tail BP: unit not given here
# Description: as §1
# Rats were induced to have chronic kidney disease via nephron mass reduction, Sprague-Dawley rats underwent partial left nephrectomy followed by total right nephrectomy one week later. CKD rats were then randomized to 1% THC diet with polyenylphosphatidylcholine (PPC, 3 g/1000 kcal) vs. regular chow. The rats were then administered a dose of Buprenex, a narcotic, that can cause kidney damage.
# as §4
# [10] = system: 5/6 nephrectomy rats; assay: Plasma C-reactive protein (CRP, inflammation) in CKD rats; format: in vivo, Sprague-Dawley rats
# Description: as §1, §2
# [11] = Table 1, CKD/THC group n = 6, mean ± S.D.
# [12] = group AVE, CKD rats treated with THC
# [13] = individual rats (Rat#), CKD rats treated with THC
# [14] = Table 4, group AVE (THC 8 rats, THC/curcumin 9 rats)
# [15] = Table 7, individual CKD rats, incl. rats 22 and 26
# [16] = Table 1, CKD/THC group n = 6, 1% THC diet with PPC, 9 weeks, mean ± S.D.
smiles,measurement,setting,value
"COc1cc(CCC(=O)CC(=O)CCc2ccc(O)c(OC)c2)ccc1O [THC, tetrahydrocurcumin]",Dosage at which relatively safe,[1],80 mgs/kg body weight
same,Proteinuria decreased compared to non-treated CKD animals,"[2]; CKD/THC group, significantly decreased",~50%
same,Urine protein/creatinine,[2]; [11],47.91 ± 15.42 mg/g
same,24 hr total proteinuria,"[2]; Table 3, individual CKD rats",638.5 mg and 612.7 mg and 355.6 mg and 537.7 mg and 613.8 mg and 410.1 mg
same,Uprot/Cr ratio,"[2]; Table 3, individual CKD rats",63.18 mg/g and 64.86 mg/g and 30.56 mg/g and 46.32 mg/g and 43.50 mg/g and 37.43 mg/g
same,24 hr total proteinuria,"[2]; Table 5, group AVE",528.07 mg
same,24 hr total proteinuria,"[2]; Table 5, individual CKD rats",638.50 mg and 612.75 mg and 355.61 mg and 537.69 mg and 613.82 mg and 410.08 mg
same,24 hr total proteinuria,[2]; [12],526.15 mg
same,Uprot/Cr ratio,[2]; [12],47.91 mg/g
same,24 hr total proteinuria,[2]; [13],638.50 mg and 612.75 mg and 355.61 mg and 613.82 mg and 410.08 mg
same,Uprot/Cr ratio,[2]; [13],63.18 mg/g and 64.86 mg/g and 30.56 mg/g and 43.50 mg/g and 37.43 mg/g
same,Increase of plasma levels on co-administration with a lipid carrier such as PPC,[3],5 fold
same,Heart wet weight normalized to body weight,[4]; [11],3.89 ± 0.61 g/kg
same,Heart wt,[4]; [14],1.068 g
same,Heart wt/body wt,[4]; [14],4.16 g/kg
same,Heart wt,"[4]; Table 4, individual CKD rats",1.169 g and 0.972 g and 1.165 g and 1.035 g and 0.854 g and 0.830 g and 1.530 g and 0.989 g
same,Heart wt/body wt,"[4]; Table 4, individual CKD rats",4.68 g/kg and 3.61 g/kg and 4.59 g/kg and 4.33 g/kg and 3.42 g/kg and 3.22 g/kg and 5.63 g/kg and 3.80 g/kg
same,Heart wt,"[4]; Table 8, group AVE of 6 rats",0.997 g
same,Heart wt/body wt,"[4]; Table 8, group AVE of 6 rats",3.89 g/kg
same,Heart wt,"[4]; Table 8, individual CKD rats",1.169 g and 0.972 g and 1.165 g and 0.854 g and 0.830 g and 0.989 g
same,Heart wt/body wt,"[4]; Table 8, individual CKD rats",4.68 g/kg and 3.61 g/kg and 4.59 g/kg and 3.42 g/kg and 3.22 g/kg and 3.80 g/kg
same,Galectin-3,"[5]; Table 3, individual CKD rats",285.96 ng/mL and 450.48 ng/mL and 436.37 ng/mL and 768.79 ng/mL and 273.14 ng/mL and 182.38 ng/mL
same,Galectin-3,"[5]; Table 6, group AVE",442.95 ng/mL
same,Galectin-3,"[5]; Table 6, individual CKD rats",285.96 ng/mL and 450.48 ng/mL and 436.37 ng/mL and 768.79 ng/mL and 273.14 ng/mL
same,Galectin-3,[5]; [12],390.94 ng/mL
same,Galectin-3,[5]; [13],285.96 ng/mL and 450.48 ng/mL and 436.37 ng/mL
same,Kidney fibrosis from Trichrome stained slides: relative % area,"[6]; Table 1, CKD/THC group n = 6, mean ± S.D., CTL = 1",1.16 ± 0.24 relative % area
same,"Kidney slides Trichrome stain, Relative % area fibrosis",[6]; group Ave,1.1551
same,"Kidney slides Trichrome stain, Relative % area fibrosis",[6]; individual kidneys,1.396 and 1.321 and 1.345 and 0.8958 and 1.146 and 0.8269
same,Solubility in water,[7],poor solubility
same,BUN lower at termination compared to the non-treated CKD group,"[8]; CKD/THC group, 1% THC diet with PPC, 9 weeks, significantly lower",about 40%
same,BUN at termination,[8]; [11],52.1 ± 19.1 mg/dL
same,Plasma creatinine,[8]; [11],1.04 ± 0.22 mg/dL
same,Terminal BUN,"[8]; Table 3, individual CKD rats",44.9 mg/dL and 60.3 mg/dL and 80.6 mg/dL and 107.7 mg/dL and 69.9 mg/dL and 32.1 mg/dL and 32.6 mg/dL and 201.8 mg/dL and 62.3 mg/dL
same,Terminal Cr,"[8]; Table 3, individual CKD rats",0.76 mg/dL and 1.28 mg/dL and 1.25 mg/dL and 1.48 mg/dL and 1.19 mg/dL and 1.13 mg/dL and 1.01 mg/dL and 2.30 mg/dL and 0.81 mg/dL
same,CrCL,"[8]; Table 3, individual CKD rats, creatinine clearance",3.71 mL/min/kg and 1.90 mL/min/kg and 2.56 mL/min/kg and 2.27 mL/min/kg and 3.46 mL/min/kg and 2.91 mL/min/kg
same,Change in BUN,[8]; [14],−6.0
same,Terminal BUN,[8]; [14],61.3 mg/dL
same,Terminal BUN,"[8]; Table 4, individual CKD rats",44.9 mg/dL and 60.3 mg/dL and 80.6 mg/dL and 107.7 mg/dL and 32.1 mg/dL and 32.6 mg/dL and 69.9 mg/dL and 62.3 mg/dL
same,Change in BUN,"[8]; Table 4, individual CKD rats, terminal minus randomization",−13.6 and −6.2 and −15.9 and 31.6 and −28.7 and −14.7 and 3.4 and −4.3
same,CrCL,"[8]; Table 6, group AVE",2.80 mL/min/kg
same,Terminal Cr,"[8]; Table 6, group AVE",1.11 mg/dL
same,Terminal Cr,"[8]; Table 6, individual CKD rats",0.76 mg/dL and 1.28 mg/dL and 1.25 mg/dL and 1.48 mg/dL and 1.13 mg/dL and 1.01 mg/dL and 1.19 mg/dL and 0.81 mg/dL
same,CrCL,"[8]; Table 6, individual CKD rats, creatinine clearance",3.71 mL/min/kg and 1.90 mL/min/kg and 2.56 mL/min/kg and 2.27 mL/min/kg and 3.46 mL/min/kg and 2.91 mL/min/kg
same,Terminal BUN,[8]; [15],44.9 mg/dL and 60.3 mg/dL and 80.6 mg/dL and 107.7 mg/dL and 69.9 mg/dL and 32.1 mg/dL and 32.6 mg/dL and 201.8 mg/dL and 62.3 mg/dL
same,Terminal Cr,[8]; [15],0.8 mg/dL (2×) and 1.3 mg/dL and 1.2 mg/dL (2×) and 1.5 mg/dL and 1.1 mg/dL and 1.0 mg/dL and 2.3 mg/dL
same,Change in BUN,"[8]; Table 8, group AVE of 6 rats",−13.9
same,Terminal BUN,"[8]; Table 8, group AVE of 6 rats",52.1 mg/dL
same,Change in BUN,"[8]; Table 8, individual CKD rats",−13.6 and −6.2 and −15.9 and −28.7 and −14.7 and −4.3
same,Terminal BUN,"[8]; Table 8, individual CKD rats",44.9 mg/dL and 60.3 mg/dL and 80.6 mg/dL and 32.1 mg/dL and 32.6 mg/dL and 62.3 mg/dL
same,CrCL,[8]; [12],2.91 mL/min/kg
same,Terminal sCr,[8]; [12],1.04 mg/dL
same,CrCL,[8]; [13],3.71 mL/min/kg and 1.90 mL/min/kg and 2.56 mL/min/kg and 3.46 mL/min/kg and 2.91 mL/min/kg
same,Diastolic blood pressure,[9]; [16],75.8 ± 12.8 mmHg
same,Systolic blood pressure,[9]; [16],116.5 ± 11.1 mmHg
same,Diastolic tail BP,"[9]; Table 5, group AVE",76.3
same,Systolic tail BP,"[9]; Table 5, group AVE",117.4 mmHg
same,Diastolic tail BP,"[9]; Table 5, individual CKD rats",95 and 69 and 60 and 78 and 81 and 67 and 77 and 83
same,Systolic tail BP,"[9]; Table 5, individual CKD rats",132 mmHg and 103 mmHg and 124 mmHg (2×) and 116 mmHg and 113 mmHg and 106 mmHg and 121 mmHg
same,Diastolic tail BP,[9]; [12],75.8
same,Diastolic tail BP,"[9]; individual rats (Rat#), 5/6 nephrectomy CKD rats treated with THC",95 and 69 and 60 and 81 and 67 and 83
same,CRP,"[10]; Table 3, individual CKD rats",2.53 mg/mL and 3.22 mg/mL and 2.15 mg/mL and 4.38 mg/mL and 2.70 mg/mL and 3.43 mg/mL and 2.36 mg/mL and 1.19 mg/mL and 2.57 mg/mL
same,CRP,"[10]; Table 6, group AVE",2.92 mg/mL
same,CRP,"[10]; Table 6, individual CKD rats",2.53 mg/mL and 3.22 mg/mL and 2.15 mg/mL and 4.38 mg/mL and 3.43 mg/mL and 2.36 mg/mL and 2.70 mg/mL and 2.57 mg/mL
same,CRP,[10]; [12],2.71 mg/mL
same,CRP,[10]; [13],2.53 mg/mL and 3.22 mg/mL and 2.15 mg/mL and 3.43 mg/mL and 2.36 mg/mL and 2.57 mg/mL
